{"source": "patent US12036262B2", "about": "“Edible plant-derived nanoparticles for regulation of gut microbiota” (University of Louisville Research Foundation, Inc., priority 2017, dated 2024)", "key": {"[1]": {"test_system": "Lactobacillus rhamnosus GG (LGG)", "assay": "LGG proliferation in culture (OD600)", "format": "cell-based", "settings": "compared with scrambled miRNA", "method": "Bacteria. Lactobacillus rhamnosus (LGG) was obtained from ATCC® (Catalog No. 53103). The SpaC-deleted LGG was cultured in Lysogeny broth (LB; ISC BioExpress, Kaysville, Utah, United States of America) at 37° C. Ruminococcaceae sp. (ATCC® Catalog No. TSD-27) was grown in GS2+cellobiose medium (Biddle et al., 2013). Listeria monocytogenes (Listeria; ATCC® Catalog No. 15313) and Bacteroides fragilis (Fragilis, NCTC 9343) were cultured in brain heart infusion (BHI) broth (Hardy Diagnostics, Santa Maria, California, United States of America) as described in Zhang & Wang, 2015 and Deng et al., 2015, respectively. LGG was grown in MRS broth media at 37° C. in anaerobic conditions for 14-16 hours to an OD600 of 0.8-1.0. Bacterial viability and concentration were checked by MRS agar platting. Cultures were centrifuged and the bacterial pellet was diluted in MRS for in vitro experiments and in PBS for gavaging at 10^9 CFU/mouse per day."}, "[2]": {"test_system": "MC-38 cells", "assay": "Migration assay, intracellular LGG", "format": "cell-based, C57BL/6 murine", "method": "Cells. C57BL/6 murine colon adenocarcinoma MC-38 cells (gender unknown; Kerafast, Inc., Boston, Massachusetts, United States of America) or human epithelial colorectal adenocarcinoma Caco-2 cells (American Type Culture Collection, ATCC®, Manassas, Virginia, United States of America) were grown in tissue culture plates with Dulbecco's modified Eagle's medium (DMEM) supplemented with 10% heat-inactivated fetal bovine serum (FBS), 100 U/mL penicillin, and 100 μg/mL streptomycin at 37° C. in a 5% CO2 atmosphere.\nMigration Assays. MC-38 or Caco-2 cells (ATCC) were seeded at 1×10^5 cells per well in a 12-well tissue culture plate with Dulbecco's modified Eagle's medium (DMEM) without antibiotics. The cells were inoculated with 1×10^7 bacteria per well for 90 minutes at 37° C. in a 5% CO2 atmosphere to allow bacterial adhesion and entry. The number of intracellular bacteria was quantified as described in Zhang & Wang, 1998."}, "[3]": {"test_system": "SpaC", "assay": "SpaC expression in LGG (qPCR, Western blotting)", "format": "cell-based, Lactobacillus rhamnosus", "settings": "compared with scrambled miRNA", "method": "Quantitative Real-Time PCR for RNA Expression. The quantity of mature miRNAs was determined with quantitative real-time PCR (qPCR) using a miScript II RT kit (QIAGEN Inc., Germantown, Maryland, United States of America) and miScript SYBR Green PCR Kit (QIAGEN) with QIAGEN 3′ universal primers. For analysis of gene mRNA expression, 1 μg of total RNA was reverse transcribed using SuperScript III reverse transcriptase (Invitrogen, Waltham, Massachusetts, United States of America), and quantitation was performed using SsoAdvanced™ Universal SYBR Green Supermix (Bio-Rad Laboratories, Inc., Hercules, California, United States of America) and the listed primers (Table 1) with SsoAdvanced™ Universal SYBR Green Supermix (Bio-Rad). qPCR was performed using a Bio-Rad CFX96 qPCR System with each reaction run in triplicate. Analysis and fold-changes were determined using the comparative threshold cycle (Ct) method. Changes in miRNA or mRNA expression were calculated as fold-change.\nWestern Blotting. LGG cells were treated as indicated in each individual Figure and harvested from 100-350 ml cultures by centrifugation at 5,000×g for 10 minutes. […] After the Alexa Fluor-647 (Invitrogen) conjugated secondary antibody incubation, the bands were visualized and analyzed using an Odyssey Imager (LI-COR, Lincoln, Nebraska, United States of America). […]"}}}
{"substance": "ath-miR167a: GELN miRNA, SEQ ID NO: 9 (UGAAGCUGCCAGCAUGAUCUA; expressed or natural sequence)", "values": [{"measurement": "growth of SpaC^del LGG", "setting": "[1]", "result": "no effect"}, {"measurement": "LGG entry into MC38 cells", "setting": "[2]", "result": "could prevent the entry of LGG into gut epithelial cells"}, {"measurement": "SpaC expression in LGG", "setting": "[3]", "result": "significantly down-regulated"}]}
